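1) Cells in 96-well plates. 2) Compound, 48 h, 5 concentrations. 3) Linear interpolation between surrounding doses. 4) Unreached endpoint = highest concentration. The concentration for 50% growth inhibition is given as GI50. TGI marks complete inhibition of growth.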 Where a SMILES comes first, the peptide text is derived from it. [ ]: non-standard residue; d: D form. The star is where a group is joined. Decanoyl = CCCCCCCCCC(=O)*; Leu(ol) = CC(C)C[C@H](N)CO; Iva = CC[C@](C)(N)C(=O)O; Aib = CC(C)(N)C(=O)O
Key:
Assay in all cases: NCI-60 cell line screen, 48 h
EKVX NSCLC = test system: EKVX NSCLC
A549 NSCLC = test system: A549 NSCLC
RPMI-8226 leukemia = test system: RPMI-8226 leukemia
HCT-15 colon = test system: HCT-15 colon
HOP-62 NSCLC = test system: HOP-62 NSCLC
A498 renal = test system: A498 renal
UACC-62 melanoma = test system: UACC-62 melanoma
SF-268 CNS = test system: SF-268 CNS
SK-MEL-5 melanoma = test system: SK-MEL-5 melanoma
BT-549 breast = test system: BT-549 breast
OVCAR-4 ovarian = test system: OVCAR-4 ovarian
SK-MEL-28 melanoma = test system: SK-MEL-28 melanoma
T-47D breast = test system: T-47D breast
LOX IMVI melanoma = test system: LOX IMVI melanoma
SF-295 CNS = test system: SF-295 CNS
SK-MEL-2 melanoma = test system: SK-MEL-2 melanoma
SR leukemia = test system: SR leukemia
SW-620 colon = test system: SW-620 colon
MDA-MB-435 = test system: MDA-MB-435
MALME-3M melanoma = test system: MALME-3M melanoma
SK-OV-3 ovarian = test system: SK-OV-3 ovarian
HT29 colon = test system: HT29 colon
NCI/ADR-RES ovarian = test system: NCI/ADR-RES ovarian
RXF 393 renal = test system: RXF 393 renal
IGROV1 ovarian = test system: IGROV1 ovarian
CAKI-1 renal = test system: CAKI-1 renal
UO-31 renal = test system: UO-31 renal
MCF7 breast = test system: MCF7 breast
MDA-MB-231 breast = test system: MDA-MB-231 breast
SN12C renal = test system: SN12C renal
SF-539 CNS = test system: SF-539 CNS
HOP-92 NSCLC = test system: HOP-92 NSCLC
OVCAR-3 ovarian = test system: OVCAR-3 ovarian
ACHN renal = test system: ACHN renal
K-562 leukemia = test system: K-562 leukemia
M14 melanoma = test system: M14 melanoma
NCI-H460 lung = test system: NCI-H460 lung
HCC-2998 colon = test system: HCC-2998 colon
NCI-H522 lung = test system: NCI-H522 lung
COLO 205 colon = test system: COLO 205 colon
SNB-19 CNS = test system: SNB-19 CNS
SNB-75 CNS = test system: SNB-75 CNS
OVCAR-5 ovarian = test system: OVCAR-5 ovarian
UACC-257 melanoma = test system: UACC-257 melanoma
HS 578T breast = test system: HS 578T breast
NCI-H226 lung = test system: NCI-H226 lung
DU-145 prostate = test system: DU-145 prostate
TK-10 renal = test system: TK-10 renal
CCRF-CEM leukemia = test system: CCRF-CEM leukemia
786-0 renal = test system: 786-0 renal
MOLT-4 leukemia = test system: MOLT-4 leukemia
KM12 colon = test system: KM12 colon
HCT-116 colon = test system: HCT-116 colon
HL-60(TB) leukemia = test system: HL-60(TB) leukemia
PC-3 prostate = test system: PC-3 prostate
OVCAR-8 ovarian = test system: OVCAR-8 ovarian

Q: How did the GI50 (EKVX NSCLC) turn out when CCCCCCCCCC(=O)N[C@@](C)(CC)C(=O)N1CCC[C@H]1C(=O)N[C@@H](CC(C)C)C(=O)N[C@@](C)(CC)C(=O)N[C@@H](CCC(N)=O)C(=O)N[C@H](CCC(N)=O)C(=O)NC(C)(C)C(=O)NC(C)(C)C(=O)N[C@@H](CCC(N)=O)C(=O)N[C@H](CC(C)C)C(=O)N[C@H](CO)CC(C)C (Decanoyl-[Iva]PL[Iva]Q[dQ][Aib][Aib]Q[dL][Leu(ol)]) was run?
A: 2.2 µM

Q: And the TGI (EKVX NSCLC)?
A: 5.47 µM

Q: And the GI50 (A549 NSCLC)?
A: 4.93 µM

Q: What about the TGI (A549 NSCLC) of the same compound?
A: 27 µM

Q: And the GI50 (RPMI-8226 leukemia)?
A: 2.33 µM

Q: What about the TGI (RPMI-8226 leukemia) of the same compound?
A: 5.06 µM

Q: And the GI50 (HCT-15 colon)?
A: 7.72 µM

Q: What about the TGI (HCT-15 colon) of the same compound?
A: 22.5 µM

Q: And the GI50 (HOP-62 NSCLC)?
A: 2.25 µM

Q: And the TGI (HOP-62 NSCLC)?
A: 5.04 µM

Q: What about the GI50 (A498 renal) of the same compound?
A: 2.75 µM

Q: What about the TGI (A498 renal) of the same compound?
A: 7.36 µM

Q: And the GI50 (UACC-62 melanoma)?
A: 1.99 µM

Q: And the TGI (UACC-62 melanoma)?
A: 4.91 µM

Q: And the GI50 (SF-268 CNS)?
A: 2.5 µM

Q: What about the TGI (SF-268 CNS) of the same compound?
A: 6.52 µM

Q: And the GI50 (SK-MEL-5 melanoma)?
A: 1.88 µM

Q: What about the TGI (SK-MEL-5 melanoma) of the same compound?
A: 3.56 µM

Q: And the GI50 (BT-549 breast)?
A: 2.08 µM

Q: What about the TGI (BT-549 breast) of the same compound?
A: 4.11 µM

Q: What about the GI50 (OVCAR-4 ovarian) of the same compound?
A: 12.7 µM

Q: And the TGI (OVCAR-4 ovarian)?
A: 28.5 µM

Q: And the GI50 (SK-MEL-28 melanoma)?
A: 1.77 µM

Q: What about the TGI (SK-MEL-28 melanoma) of the same compound?
A: 3.3 µM

Q: What about the GI50 (T-47D breast) of the same compound?
A: 3.56 µM

Q: And the TGI (T-47D breast)?
A: 17.8 µM

Q: And the GI50 (LOX IMVI melanoma)?
A: 1.97 µM

Q: And the TGI (LOX IMVI melanoma)?
A: 4.26 µM

Q: What about the GI50 (SF-295 CNS) of the same compound?
A: 1.76 µM

Q: What about the TGI (SF-295 CNS) of the same compound?
A: 3.42 µM

Q: And the GI50 (SK-MEL-2 melanoma)?
A: 2.76 µM

Q: What about the TGI (SK-MEL-2 melanoma) of the same compound?
A: 8.36 µM

Q: And the GI50 (SR leukemia)?
A: 1.94 µM

Q: And the TGI (SR leukemia)?
A: 4.32 µM

Q: And the GI50 (SW-620 colon)?
A: 4.05 µM

Q: And the TGI (SW-620 colon)?
A: 15.2 µM

Q: What about the GI50 (MDA-MB-435) of the same compound?
A: 1.86 µM

Q: And the TGI (MDA-MB-435)?
A: 3.6 µM

Q: And the GI50 (MALME-3M melanoma)?
A: 2.12 µM

Q: And the TGI (MALME-3M melanoma)?
A: 4.95 µM

Q: What about the GI50 (SK-OV-3 ovarian) of the same compound?
A: 5.03 µM

Q: What about the TGI (SK-OV-3 ovarian) of the same compound?
A: 18.9 µM

Q: What about the GI50 (HT29 colon) of the same compound?
A: 3.48 µM

Q: And the TGI (HT29 colon)?
A: 14.8 µM

Q: And the GI50 (NCI/ADR-RES ovarian)?
A: 5.59 µM

Q: And the TGI (NCI/ADR-RES ovarian)?
A: 19.6 µM

Q: And the GI50 (RXF 393 renal)?
A: 1.81 µM

Q: What about the TGI (RXF 393 renal) of the same compound?
A: 3.63 µM

Q: What about the GI50 (IGROV1 ovarian) of the same compound?
A: 4.05 µM

Q: What about the TGI (IGROV1 ovarian) of the same compound?
A: 14.8 µM

Q: What about the GI50 (CAKI-1 renal) of the same compound?
A: 6.6 µM

Q: And the TGI (CAKI-1 renal)?
A: 20.8 µM

Q: And the GI50 (UO-31 renal)?
A: 3.58 µM

Q: What about the TGI (UO-31 renal) of the same compound?
A: 16.1 µM

Q: What about the GI50 (MCF7 breast) of the same compound?
A: 2.04 µM

Q: What about the TGI (MCF7 breast) of the same compound?
A: 4.38 µM

Q: What about the GI50 (MDA-MB-231 breast) of the same compound?
A: 2.04 µM

Q: What about the TGI (MDA-MB-231 breast) of the same compound?
A: 4.71 µM

Q: What about the GI50 (SN12C renal) of the same compound?
A: 2.29 µM

Q: What about the TGI (SN12C renal) of the same compound?
A: 6.15 µM

Q: What about the GI50 (SF-539 CNS) of the same compound?
A: 1.98 µM

Q: And the TGI (SF-539 CNS)?
A: 4.21 µM

Q: What about the GI50 (HOP-92 NSCLC) of the same compound?
A: 1.34 µM

Q: And the TGI (HOP-92 NSCLC)?
A: 4.6 µM

Q: And the GI50 (OVCAR-3 ovarian)?
A: 7.61 µM

Q: What about the TGI (OVCAR-3 ovarian) of the same compound?
A: 22.2 µM

Q: What about the GI50 (ACHN renal) of the same compound?
A: 8.34 µM

Q: And the TGI (ACHN renal)?
A: 20.8 µM

Q: And the GI50 (K-562 leukemia)?
A: 2.09 µM

Q: And the TGI (K-562 leukemia)?
A: 4.37 µM

Q: And the GI50 (M14 melanoma)?
A: 1.93 µM

Q: And the TGI (M14 melanoma)?
A: 3.95 µM

Q: What about the GI50 (NCI-H460 lung) of the same compound?
A: 3.53 µM

Q: What about the TGI (NCI-H460 lung) of the same compound?
A: 11.8 µM

Q: What about the GI50 (HCC-2998 colon) of the same compound?
A: 2.15 µM

Q: And the TGI (HCC-2998 colon)?
A: 4.58 µM

Q: What about the GI50 (NCI-H522 lung) of the same compound?
A: 2.06 µM

Q: And the TGI (NCI-H522 lung)?
A: 5.13 µM

Q: What about the GI50 (COLO 205 colon) of the same compound?
A: 1.91 µM

Q: And the TGI (COLO 205 colon)?
A: 3.8 µM

Q: What about the GI50 (SNB-19 CNS) of the same compound?
A: 2.08 µM

Q: And the TGI (SNB-19 CNS)?
A: 4.66 µM

Q: What about the GI50 (SNB-75 CNS) of the same compound?
A: 1.6 µM

Q: What about the TGI (SNB-75 CNS) of the same compound?
A: 4.15 µM

Q: What about the GI50 (OVCAR-5 ovarian) of the same compound?
A: 3.38 µM

Q: And the TGI (OVCAR-5 ovarian)?
A: 12.4 µM

Q: And the GI50 (UACC-257 melanoma)?
A: 1.75 µM

Q: And the TGI (UACC-257 melanoma)?
A: 3.46 µM

Q: What about the GI50 (HS 578T breast) of the same compound?
A: 2.1 µM

Q: And the TGI (HS 578T breast)?
A: 5.5 µM

Q: What about the GI50 (NCI-H226 lung) of the same compound?
A: 2.21 µM

Q: What about the TGI (NCI-H226 lung) of the same compound?
A: 5.2 µM

Q: And the GI50 (DU-145 prostate)?
A: 1.96 µM

Q: What about the TGI (DU-145 prostate) of the same compound?
A: 3.67 µM

Q: What about the GI50 (TK-10 renal) of the same compound?
A: 4.09 µM

Q: What about the TGI (TK-10 renal) of the same compound?
A: 16.7 µM

Q: And the GI50 (CCRF-CEM leukemia)?
A: 2.01 µM

Q: And the TGI (CCRF-CEM leukemia)?
A: 4.49 µM

Q: And the GI50 (786-0 renal)?
A: 2.48 µM

Q: What about the TGI (786-0 renal) of the same compound?
A: 6.48 µM

Q: And the GI50 (MOLT-4 leukemia)?
A: 2.09 µM

Q: What about the TGI (MOLT-4 leukemia) of the same compound?
A: 4.43 µM

Q: What about the GI50 (KM12 colon) of the same compound?
A: 2.03 µM

Q: And the TGI (KM12 colon)?
A: 4.37 µM

Q: And the GI50 (HCT-116 colon)?
A: 3.3 µM

Q: And the TGI (HCT-116 colon)?
A: 12.1 µM

Q: And the GI50 (HL-60(TB) leukemia)?
A: 2.23 µM

Q: What about the TGI (HL-60(TB) leukemia) of the same compound?
A: 6.26 µM

Q: And the GI50 (PC-3 prostate)?
A: 1.79 µM

Q: What about the TGI (PC-3 prostate) of the same compound?
A: 3.51 µM

Q: What about the GI50 (OVCAR-8 ovarian) of the same compound?
A: 1.91 µM

Q: What about the TGI (OVCAR-8 ovarian) of the same compound?
A: 4.17 µM
